Experimental data: patent US6887873B2, “Triazine derivatives and their application as antitelomerase agents” (Aventis Pharma S.A., priority 2001, dated 2005)

Key:
[1] = tested on: G-quadruplex of oligonucleotide GGGTTAGGGTTAGGGTTAGGG (3.5 repeats of the human telomereic motif); assay: G-quadruplex stabilizing activity, fluorescence Tm (FAM+DABCYL oligonucleotide); type: binding
Source text: The G-quadruplex stabilizing activity may be determined by a method using the formation of a complex with fluorescein of which the experimental protocol is described below.
All the nucleotides, modified or otherwise, were synthesized by Eurogentec SA, Seraing, Belgium. The oligonucleotide FAM+DABCYL carries the catalogue reference OL-0371-0802. It has the sequence: […] corresponding to 3.5 repeats of the human telomereic motif (strand rich in G). The fluorescein is attached to the 5′ end, the DABCYL to the 3′ end, by the chemical arms described by Eurogentec. The concentration of the samples is checked by spectrophotometry, recording the absorbance spectrum between 220 and 700 nm and using the molar extinction coefficient provided by the supplier.
All the experiments were carried out in a 10 mM sodium cacodylate buffer pH 7.6 containing 0.1 M lithium chloride (or sodium chloride). The absence of fluorescent contamination in the buffer was checked beforehand. The fluorescent oligonucleotide is added at the final concentration of 0.2 μM.
All the measurements of fluorescence were carried out on a Spex Fluorolog DM1B apparatus, using an excitation line width of 1.8 nm and an emission line width of 4.5 nm. The samples are placed in a microquartz cuvette of 0.2×1 cm. The temperature of the sample is controlled by an external water bath. The oligonucleotide alone was analysed at 20, 30, 40, 50, 60, 70 and 80° C. The emission spectra are recorded using an excitation wavelength of 470 nm. The excitation spectra are recorded using either 515 nm or 588 nm as emission wavelength. The spectra are corrected for the response of the instrument by reference curves. A high extinction (80-90%) of the fluorescence of fluorescein at room temperature is observed, in agreement with an intramolecular folding of the oligonucleotide at 20° C. in the form of a G-quadruplex, which induces juxtaposition of its 5′ and 3′ ends which are respectively linked to fluorescein and to DABCYL. This juxtaposition causes an already-described phenomenon of extinction of fluorescence which is used for “molecular beacons”.
An oligonucleotide stock solution at the strand concentration of 0.2 μM in 0.1 M LiCl, 10 mM cacodylate buffer, pH 7.6, is prepared beforehand, heated briefly at 90° C. and slowly cooled to 20° C., and then distributed in aliquots of 600 μl in the fluorescence cuvettes. 3 μl of water (for the control) or 3 μl of test product (stock at 200 μM, final concentration 1 μM) are then added and mixed. The samples are then allowed to incubate for at least 1 hour at 20° C. before each measurement. The use of longer incubation times (up to 24 hours) has no influence on the result obtained.
Each experiment allows the measurement of only one sample. The latter is first incubated at an initial temperature of 20° C., heated to 80° C. over 38 minutes, left for 5 minutes at 80° C. and then cooled to 20° C. over 62 minutes. During this time, the fluorescence is measured simultaneously at two emission wavelengths (515 nm and 588 nm) using 470 nm as excitation wavelength. A measurement is carried out every 30 seconds. The temperature of the water bath is recorded in parallel, and the fluorescence profile as a function of the temperature is reconstituted from these values. The fluorescence profiles are then normalized between 20° C. and 80° C., and the temperature for which the intensity of emission at 515 nm is the mean of those at high and low temperature is called Tm. Under these conditions, the Tm of the reference sample without addition of product is 44° C. in a lithium chloride buffer. This temperature is increased to more than 55° C. in a sodium chloride buffer. The addition of a G-quadruplex-stabilizing compound induces an increase in the Tm. This increase is judged to be significant if it is greater than 3°.

[2] = tested on: human telomerease (HL60 cell extract); assay: Antitelomerease activity: extension of oligonucleotide TS followed by PCR amplification, with HL60 extract; type: biochemical; settings: read-out: TRAP IC50
Protocol: The antitelomerease biological activity is determined by the following experimental protocol:
The leukaemia line HL60 is obtained from ATCC (American Type Culture Collection, Rockville, USA). The cells are cultured in suspension in RPMI 1640 medium containing L-glutamine at 2 mM, penicillin 200 U/ml, streptomycin 200 μg/ml, gentamycin 50 μg/ml and supplemented with 10% heat-inactivated foetal calf serum.
An aliquot of 10^5 cells is centrifuged at 3000×G and the supernatant discarded. The cell pellet is resuspended by several successive pipettings in 200 μl of lysis buffer containing 0.5% CHAPS, 10 mM Tris-HCl, pH 7.5, 1 mM MgCl2, 1 mM EGTA, 5 mM β-mercaptoethanol, 0.1 mM PMSF and 10% glycerol and is stored in ice for 30 minutes. The lysate is centrifuged at 160,000×G for 20 minutes at 4° C. and 160 μl of supernatant are recovered. The proteins in the extract are assayed by the Bradford method. The extract is stored at −80° C.
The inhibition of the telomerease activity is determined by a protocol for extension of the oligonucleotide TS (^5′AATCGTTCGAGCAGAGTT^3′), in the presence of a cellular extract enriched in telomerease activity and compounds which are added at various concentrations (10, 1, 0.1 and 0.01 μM). The extension reaction is followed by a PCR amplification of the extension products with the aid of the oligonucleotides TS and CXext (^5′[…]^3′).
The reaction medium is prepared based on the following composition:
The oligonucleotides are obtained from Eurogentec (Belgium) and are stored at −20° C. at a stock concentration of 1 mg/ml in distilled water.
The reaction samples are assembled in 0.2 ml PCR tubes and one drop of paraffin oil is deposited on each of the reactions of the experiment before closing the tubes.
The reaction samples are then incubated in a Cetus 4800-type PCR apparatus under the following temperature conditions: • 15 minutes at 30° C., • 1 minute at 90° C., • followed by 30 cycles of, • 30 seconds at 94° C., • 30 seconds at 50° C., • and 1 minute 30 seconds at 72° C., • followed by a final cycle of 2 minutes at 72° C.
For each of the samples, an aliquot of 10 μl is pipetted under the oil layer and mixed with 5 μl of a loading buffer containing:
The samples are then analysed by electrophoresis on 12% acrylamide gel in a 1×TBE buffer for 1 hour at a voltage of 200 volts, with the aid of a Novex electrophoresis system.
The acrylamide gels are then dried on a sheet of Whatmann 3 mm paper at 80° C. for 1 hour.
The analysis and the quantification of the reaction products are carried out with the aid of an InstantImager apparatus (Pacard).
For each compound concentration tested, the results are expressed as percentage inhibition of the reaction and calculated from the untreated enzymatic control and from the enzyme-free sample (blank) according to the following formula: (compound value−blank value/enzymatic control value−blank value)×100.
The concentration of compound inducing a 50% inhibition of the telomerease reaction (IC50) is determined with the aid of a semilogarithmic graphical representation of the inhibition values obtained as a function of each of the compound concentrations tested.
A compound is considered to be active as an antitelomerease agent when the quantity inhibiting 50% of the telomerease reaction is in particular less than 5 μM.

SMILES	G4 delta Tm [1] [°C]	IC50 [2] [nM]
Cc1cc(N)c2cc(Nc3nc(Nc4ccc5nc(C)cc(N)c5c4)nc(N4CCN(CCCN(C)C)CC4)n3)ccc2n1 [Example 64]	12	90
Cc1cc(N)c2cc(Nc3nc(NCCNC(C)C)nc(Nc4ccc5nc(C)cc(N)c5c4)n3)ccc2n1 [Example 91]	7	370
Cc1cc(N)c2cc(Nc3nc(Nc4ccc5nc(C)cc(N)c5c4)nc(OCc4ccccc4)n3)ccc2n1 [Example 33, 2,4-bis(4-amino-2-methylquinolin-6-yl)amino-6-(phenylmethyl)oxy-[1,3,5]triazine]	10.0	400
Cc1cc(N)c2cc(Nc3nc(Nc4ccc5nc(C)cc(N)c5c4)nc(N4CCN(c5ccncc5)CC4)n3)ccc2n1 [Example 59]	11	190
Cc1cc(N)c2cc(Nc3nc(Nc4ccc5nc(C)cc(N)c5c4)nc(N4CCN(C(=O)C5CCCO5)CC4)n3)ccc2n1 (stereo not drawn) [Example 72]	9.5	210
Cc1cc(N)c2cc(Nc3nc(Nc4ccc5nc(C)cc(N)c5c4)nc(N4CCN(C)CC4)n3)ccc2n1 [Example 14]	4.4	210
Cc1cc(N(C)C)c2cc(Nc3nc(Nc4ccc5nc(C)cc(N(C)C)c5c4)nc(Sc4ccc5ccccc5n4)n3)ccc2n1 [Example 133, 2,4-bis(4-dimethylamino-2-methylquinolin-6-yl)amino-6-(quinolin-2-yl)thio-[1,3,5]triazine]	25	180
Cc1cc(N)c2cc(Nc3nc(NCCO)nc(Nc4ccc5nc(C)cc(N)c5c4)n3)ccc2n1 [Example 158]	8	850
Cc1cc(N)c2cc(Nc3nc(Nc4ccc5nc(C)cc(N)c5c4)nc(N4CCCCC4CN4CCCCC4)n3)ccc2n1 (stereo not drawn) [Example 70]	9.5	560
Cc1cc(N)c2cc(Nc3nc(NCCN(C(C)C)C(C)C)nc(Nc4ccc5nc(C)cc(N)c5c4)n3)ccc2n1 [Example 39]	19.5	230
Cc1cc(N)c2cc(Nc3nc(NCc4cccnc4)nc(Nc4ccc5nc(C)cc(N)c5c4)n3)ccc2n1 [Example 66]	9	280
Cc1cc(N(C)C)c2cc(Nc3nc(NCCc4ccccc4)nc(Nc4ccc5nc(C)cc(N(C)C)c5c4)n3)ccc2n1 [Example 26]	4.8	1100
Cc1cc(N(C)C)c2cc(Nc3nc(Nc4ccc5nc(C)cc(N(C)C)c5c4)nc(N4CCCC4)n3)ccc2n1 [Example 23]	9.2	3000
Cc1cc(N)c2cc(Nc3nc(Nc4ccc5nc(C)cc(N)c5c4)nc(N4CCN(c5ncccn5)CC4)n3)ccc2n1 [Example 58]	6	220
COC(=O)NCCNc1nc(Nc2ccc3nc(C)cc(N)c3c2)nc(Nc2ccc3nc(C)cc(N)c3c2)n1 [Example 38]	9.5	1000
Cc1cc(N)c2cc(Nc3nc(Nc4ccc5nc(C)cc(N)c5c4)nc(Oc4ccccn4)n3)ccc2n1 [Example 110]	20.5	610
Cc1cc(N)c2cc(Nc3nc(Nc4ccc5nc(C)cc(N)c5c4)nc(N(C)C4CCN(Cc5ccccc5)C4)n3)ccc2n1 (stereo not drawn) [Example 65]	12.5	1000
Cc1cc(N)c2cc(Nc3nc(Nc4ccc5nc(C)cc(N)c5c4)nc(Nc4ccc5nc(C)cc(N(C)C)c5c4)n3)ccc2n1 [Example 11, 2,4-bis(4-amino-2-methylquinolin-6-yl)amino-6-(4-dimethylamino-2-methylquinolin-6-yl)amino-[1,3,5]triazine]	11.4	160
Cc1cc(N)c2cc(Nc3nc(Nc4ccc5nc(C)cc(N)c5c4)nc(NC4CCN(C)CC4)n3)ccc2n1 [Example 13]	7.2	260
Cc1cc(N)c2cc(Nc3nc(NCCN4CCN(Cc5ccccc5)CC4)nc(Nc4ccc5nc(C)cc(N)c5c4)n3)ccc2n1 [Example 74]	9.5	140
Cc1cc(N)c2cc(Nc3nc(Nc4ccc5nc(C)cc(N)c5c4)nc(SCCN(C)C)n3)ccc2n1 [Example 132]	12.5	400
Cc1cc(N)c2cc(Nc3nc(NCCN4CCCCC4)nc(Nc4ccc5nc(C)cc(N)c5c4)n3)ccc2n1 [Example 90]	11	370
Cc1cc(N)c2cc(Nc3nc(Nc4ccc5nc(C)cc(N)c5c4)nc(N4CCN(CCN5CCCC5)CC4)n3)ccc2n1 [Example 75]	13.5	50
Cc1cc(N)c2cc(Nc3nc(Nc4ccncc4)nc(Nc4ccccc4Cl)n3)ccc2n1 [Example 4]	5.5	3000
COC(C)CNc1nc(Nc2ccc3nc(C)cc(N)c3c2)nc(Nc2ccc3nc(C)cc(N)c3c2)n1 (stereo not drawn) [Example 156]	14.5	1200
Cc1cc(N)c2cc(Nc3nc(Nc4ccc5nc(C)cc(N)c5c4)nc(N4CCN(CCc5ccccc5)CC4)n3)ccc2n1 [Example 57]	8	300
COCCNc1nc(Nc2ccc3nc(C)cc(N(C)C)c3c2)nc(Nc2ccc3nc(C)cc(N(C)C)c3c2)n1 [Example 25]	4.2	2200
